# Values joined by “and” are separate entries in the source; they are usually repeats but may differ in a detail not shown here. Identical values can stand only once. Like-named read-outs stand apart in the source and are kept apart here.
# Key:
# HbS [1] = target: T1, HbS (Homo sapiens, UniProt P68871+P69905, E7V); assay: Polymerization assay; type: biochemical; set-up: HbS is purified by the CRO VIRUSYS, from blood obtained from homozygous sickle cell patients; tissue VIRUSYS (CRO that did the purification); host or cells: blood of homozygous sickle cell patients; conditions: 75 μM compound; for Polymerization (75 μM)/(% DT): 50 μM purified HbS, percent delay time
# Description: Polymerization assays are carried out in vitro using purified HBS exchanged into 1.8 M potassium phosphate buffer at pH 7.4. Using a slightly modified protocol (Antonini and Brunori, 1971), HbS is purified by the CRO VIRUSYS, from blood obtained from homozygous sickle cell patients through the Hemoglobinopathy Center at Children's Hospital Oakland Research Institute (CHORI) with Institutional Review Board approval. Compounds are prepared in 100% DMSO and a desired amount is added to 50 μM of purified HbS at a final DMSO concentration of 0.3%. Final potassium phosphate concentration is adjusted to 1.8 M using a combination of 2.5 M potassium phosphate stock solution and water at pH 7.4. The reaction mixture is incubated for an hour at 37° C. and then transferred into a 24-well plate for deoxygenation in a glove box containing 99.5% nitrogen and 0.5% oxygen. The 24-well plate is not covered and incubated at 4° C. on a plate cooler inside the glove box for one and a half hours. Fifty μL of the reaction mixture is transferred into a 96-well plate and the absorbance at 700 nm is measured every minute for one hour at 37° C. in a plate reader located inside the glove box. A plot of the absorbance against time is fitted using a Boltzman sigmoidal fit and the delay time (from zero to time at half Vmax) is measured. To compare and rank compounds, delay times are expressed as percent delay (% DT), which is defined as the difference in delay times for HbS/compound and HbS alone multiplied by 100 and divided by the delay time for HbS alone.
# Results: Compounds listed below have been tested in the polymerization assay. Activity ranges are defined by the number of dagger (†) symbols indicated. † denotes activity ≧40% but ≦80%; †† denotes activity >80% but ≦120%; ††† denotes activity >120% but ≦140%; †††† denotes activity >[…].
# [2] = Pharmacokinetics of compound 12 suspension formulation (methylcellulose/sodium dodecyl sulfate), oral, rats; type: in vivo, Sprague-Dawley rats
# Description: (§1) Blood samples were collected at different time points. Blood was anti-coagulated by 3.2% TSC (trisodium citrate) and a portion was separated into plasma fraction by centrifugation and removal of blood cells. Plasma and lysed blood samples were analyzed for drug concentration using LC-MS/MS. PK parameters were calculated by non compartmental analysis of the concentration-time profiles using WinNonLin software (Pharsight, Mountain View, Calif.). Apparent elimination half-life (t1/2) values were calculated as ln(2)/k. Area under the concentration-time curve (AUC) values were estimated using the linear trapezoidal method. AUClast values were calculated from the dosing time to the last measurable concentration. AUCinf values were calculated as the sum of the corresponding AUClast and the ratio of the last detectable concentration divided by k. Plasma clearance (Cl) is calculated from Dose/AUCinf. Volume of distribution at steady state (Vss) is calculated from Mean Residence Timeinf×Clss. Maximum concentration (Cmax) and time to Cmax (Tmax) was recorded as observed. The blood/plasma partitioning ratio was calculated at each experimental time point.
# A suspension of Compound 12 was prepared by triturating 250 mg of compound 12 in a mortar with 2 mL of 0.5% methylcellulose in water and 200 μL of 0.5% sodium dodecyl sulfate. After approximately 5 minutes, the suspension was homogeneous. The volume of the mixture was adjusted to 12.5 mL with 0.5% methylcellulose to obtain a final concentration of 20 mg/mL. To prepare a 10 mg/mL suspension of compound 12, the 20 mg/mL suspension was diluted two-fold with 0.5% methylcellulose.
# Pharmacokinetics of compound 12 following an oral administration of compound 12 suspension at 50 mg/kg or 100 mg/kg were studied in male Sprague-Dawley rats (n=3/group) using the method described in Example 1. Maximum blood concentration of compound 12 was achieved within 6 hours. The maximum concentrations at 50 mg/kg and 100 mg/kg compound 12 were 281 μg/mL (903 μM) and 327 μg/mL (1050 μM), respectively.
# HbS [3] = target: T1, HbS; assay: Reverse Hemox assay (oxygen equilibrium curves of whole blood); type: cell-based; set-up: Oxygen Equilibrium Curves (OEC) of whole blood before and after treatment; from tissue; host or cells: whole blood (red blood cells) of homozygous sickle cell patients; conditions: 1 mM compound, sickle cell whole blood; for Reverse Hemox (1 mM)/(delta p50%): hematocrit 20%, 1 hour 37° C.
# Description: Oxygen Equilibrium Curves (OEC) of whole blood before and after treatment with different concentrations of compounds 12, 22 and 23 were performed as follows using a HEMOX analyzer (TCS Scientific, New Hope, Pa.). Blood samples from homozygous sickle cell patients were obtained though the Hemoglobinopathy Center at Children's Hospital Oakland Research Institute (CHORI) with Institutional Review Board approval. The hematocrit was adjusted to 20% using autologous plasma and the blood samples were incubated for 1 hour at 37° C. in absence or presence of compounds. 100 μl of these samples were added to 5 mL of Hemox buffer (30 mM TES, 130 mM NaCl, 5 mM KCl, pH=7.4) at 37° C. and then transferred to the Hemox sample chamber. The samples were saturated with oxygen by flushing with compressed air for 10 minutes. The samples were then flushed with pure nitrogen and the respective absorbances of oxy- and deoxy-Hb were recorded as a function of the solution pO2. The oxygen equilibrium data were then fitted to the Hill Model to obtain values for p50. The deoxygenation curves for both whole blood alone (control) and whole blood in the presence of the compound were collected with the TCS software.
# Results: Table 3 below lists the delta p50% values where “+” indicates a delta p50% of between 0 and 29, “++” indicates a delta p50% of between 30 and 50, and “+++” indicates a delta p50% of 50 or greater.
# HbS/A = target: T2, HbS/A (Homo sapiens, UniProt P68871+P69905, E7V); assay: R/T assay (relaxed-to-tense transition assay); type: biochemical; conditions: for R-T (9 μM)/(delta R), class / R-T (9 μM)/(delta R): 9 μM compound; for R-T (9 μM)/(delta R) / R-T (10 μM)/(delta R): 3 μM HbS/A; for R-T (10 μM)/(delta R), class / R-T (10 μM)/(delta R): 10 μM compound
# T2 construct: A mixture of HbS/A was purified from blood obtained from homozygous sickle cell patients; from tissue; host or cells: blood of homozygous sickle cell patients; hemoglobin purified from it
# Description: This ability can be expressed as a “delta R” value (i.e., the change in the time-period of the R state after hemoglobin is treated with a compound, as compared to the period without treatment with the compound). Delta R is the % R to remaining after the compounds treatment compared with no treatment (e.g. if R % without treatment is 8% while with treatment with a target compound is 48% R at 30 μM, then % R is 40% for that compound.
# A mixture of HbS/A was purified from blood obtained from homozygous sickle cell patients though the Hemoglobinopathy Center at Children's Hospital Oakland Research Institute (CHORI) with Institutional Review Board approval. HbS/A (at a final concentration of 3 μM) was incubated for 1 hr at 37° C. in presence or absence of compounds in […] potassium phosphate buffer, pH=7.4 and 30 μM 2, 3 diphosphoglycerate (DPG) in 96 well plates in a final volume of 160 μl. Compounds were added at different concentrations (3 μM to 100 μM final concentrations). Plates were covered with a Mylar film. After incubation was completed the Mylar cover was removed and the plates were placed in a Spectrostar Nano plate reader previously heated at 37° C. Five minutes later, N2 (flow rate=20 L/min) was flowed through the spectrophotometer. Spectroscopic measurements (300 nm to 700 nm) were taken every 5 min for 2 hours. Data analysis was performed by using linear regression from the data retrieved for all wavelengths.
# Results: Table 3 below lists the delta R values where “+” indicates a delta R of between 0 and 30, “++” indicates a delta R of between 30 and 50, and “+++” indicates a delta R of 50 or greater.
# hemoglobin = hemoglobin (Homo sapiens, UniProt P68871+P69905); assay: In vitro system measuring binding to hemoglobin and human serum albumin; conditions: both proteins present in their respective physiologic ratio
# Description: However, when the red blood cell compartment is considered, compound 12 unexpectedly partitions into blood to a far greater extent than compound 22 or compound 23. […] When the red blood cell/plasma ratio was measured at the peak concentration, compound 12 partitioned at a ratio of 70 to 1 into the erythrocytes attesting to its preferential partition into the compartment which contains the drug target hemoglobin. Supportive data was reported in an in vitro system measuring binding of compound 12 to hemoglobin and human serum albumin.
# [4] = Pharmacokinetic (PK) properties in rats, oral or intravenous dosing; type: in vivo, Rats (Sprague-Dawley); conditions: for blood plasma ratio: male, Sprague-Dawley, rat, whole blood and plasma, po, 10 mg/kg, dosed orally
# Description: This experiment was established and used in order to assess the pharmacokinetic (PK) properties of the compounds.
# Sample collection and data analysis: Rats (Sprague-Dawley, male, 8-12 weeks old) were dosed with one of three compounds corresponding to compound 12, compound 22 or compound 23. The rats received oral (10 mg/kg) or intravenous (1 mg/kg) doses of the compound. Rats were fasted overnight before the experiments and provided with food after the 2 hour sampling time point.
# as §1
# [5] = Pharmacokinetics of compound 12 following oral administration of compound 53 formulation, rats; conditions: following oral administration 10 mg/kg
# [6] = overall exposure, read-out: Blood/plasma (Ratio of exposure AUCINF)
compound,measurement,setting,value
"CC(C)n1nccc1-c1ncccc1COc1cccc(O)c1C=O [Compound 12, 2-hydroxy-6-[[2-(2-propan-2-ylpyrazol-3-yl)pyridin-3-yl]methoxy]benzaldehyde]","Polymerization (75 μM)/(% DT), class",HbS [1],†† (†† denotes activity >80% but ≦120%)
same,Polymerization (75 μM)/(% DT),HbS [1],108.56%
same,AUC(0-inf),"[2]; male, Sprague-Dawley, rat, blood, oral suspension 50 mg/kg",7340 µg·h/mL
same,half-life,"[2]; male, Sprague-Dawley, rat, blood, oral suspension 50 mg/kg or 100 mg/kg, read-out: mean terminal half-life",960 to 1140 min
same,AUC(0-inf),"[2]; male, Sprague-Dawley, rat, blood, oral suspension 100 mg/kg",9460 µg·h/mL
same,time to maximum blood concentration,[2]; oral suspension 50 mg/kg or 100 mg/kg,≤ 6 h
same,maximum concentration,"[2]; oral suspension 50 mg/kg, blood",281 μg/mL and 903 μM
same,maximum concentration,"[2]; oral suspension 100 mg/kg, blood",327 μg/mL and 1050 μM
same,"Reverse Hemox (1 mM)/(delta p50%), class",HbS [3],+++ (“+++” indicates a delta p50% of 50 or greater)
same,Reverse Hemox (1 mM)/(delta p50%),HbS [3],79.83%
same,"R-T (9 μM)/(delta R), class",HbS/A,+++ (“+++” indicates a delta R of 50 or greater)
same,R-T (9 μM)/(delta R),HbS/A,65.45
same,"R-T (10 μM)/(delta R), class",HbS/A,+++ (“+++” indicates a delta R of 50 or greater)
same,R-T (10 μM)/(delta R),HbS/A,62.75
same,binding to hemoglobin versus human serum albumin,hemoglobin,preferentially binding to hemoglobin
same,red blood cell/plasma ratio at the peak concentration,[4]; ratio to 1 into erythrocytes,70
"COc1cc(C=O)c(OCc2cccnc2-c2ccnn2CC(F)F)cn1 [Compound 22, 5-[[2-[2-(2,2-difluoroethyl)pyrazol-3-yl]pyridin-3-yl]methoxy]-2-methoxypyridine-4-carbaldehyde]","Polymerization (75 μM)/(% DT), class",HbS [1],†† (†† denotes activity >80% but ≦120%)
same,Polymerization (75 μM)/(% DT),HbS [1],90.22%
same,"Reverse Hemox (1 mM)/(delta p50%), class",HbS [3],+++ (“+++” indicates a delta p50% of 50 or greater)
same,Reverse Hemox (1 mM)/(delta p50%),HbS [3],68.69%
same,"R-T (9 μM)/(delta R), class",HbS/A,++ (“++” indicates a delta R of between 30 and 50)
same,R-T (9 μM)/(delta R),HbS/A,31.02
same,"R-T (10 μM)/(delta R), class",HbS/A,++ (“++” indicates a delta R of between 30 and 50)
same,R-T (10 μM)/(delta R),HbS/A,36.25
same,blood plasma ratio,[4]; [6],5
"COc1cc(C=O)c(OCc2cccnc2-c2ccccc2C)cn1 [Compound 23, 2-methoxy-5-[[2-(2-methylphenyl)pyridin-3-yl]methoxy]pyridine-4-carbaldehyde]","Polymerization (75 μM)/(% DT), class",HbS [1],†† (†† denotes activity >80% but ≦120%)
same,Polymerization (75 μM)/(% DT),HbS [1],98.19%
same,"Reverse Hemox (1 mM)/(delta p50%), class",HbS [3],+++ (“+++” indicates a delta p50% of 50 or greater)
same,Reverse Hemox (1 mM)/(delta p50%),HbS [3],72.45%
same,"R-T (9 μM)/(delta R), class",HbS/A,++ (“++” indicates a delta R of between 30 and 50)
same,R-T (9 μM)/(delta R),HbS/A,37.15
same,"R-T (10 μM)/(delta R), class",HbS/A,+++ (“+++” indicates a delta R of 50 or greater)
same,R-T (10 μM)/(delta R),HbS/A,51.55
same,blood plasma ratio,"[4]; at Cmax, read-out: Blood/plasma (Ratio of peak concentration)",3
same,blood plasma ratio,[4]; [6],1
"CC(C)n1nccc1-c1ncccc1COc1cccc(OP(=O)(O)O)c1C=O [Compound 53, 2-formyl-3-((2-(1-isopropyl-1H-pyrazol-5-yl)pyridin-3-yl)methoxy)phenyl dihydrogen phosphate]",in vivo conversion of prodrug,[5],converted to compound 12

# Source: patent US20160206604A1, “FORMULATIONS COMPRISING WETTING AGENTS AND COMPOUNDS FOR THE MODULATION OF HEMOGLOBIN (S)” (GLOBAL BLOOD THERAPEUTICS, INC., priority 2013, published 2016)
